For 34 compounds, Hepatotoxicity results are on record in ChEMBL document CHEMBL1697731, “Cheminformatics analysis of assertions mined from literature that describe drug-induced liver injury in different species” (Chem Res Toxicol, 2010).

Data set [1] deals with Hepatotoxicity. Put plainly: Literature-mined compound from Fourches et al multi-species drug-induced liver injury (DILI) dataset, effect in humans. Particulars: human.
Data set [2] relates to Hepatotoxicity. Put plainly: Literature-mined compound from Fourches et al multi-species drug-induced liver injury (DILI) dataset, effect in non-rodents.
Data set [3] deals with Hepatotoxicity. Put plainly: Literature-mined compound from Fourches et al multi-species drug-induced liver injury (DILI) dataset, effect in rodents. Particulars: rodentia.

Consider `CCCc1nc2c(C)cc(-c3nc4ccccc4n3C)cc2n1Cc1ccc(-c2ccccc2C(=O)O)cc1`, for which the Hepatotoxicity entry in the data set on Hepatotoxicity [1] was “drug-induced liver injury reported”; in the data set with Hepatotoxicity [2], “no drug-induced liver injury reported”; in the data set on Hepatotoxicity [3], “drug-induced liver injury reported”.
For `CCCCN1C[C@H](O)[C@@H](O)[C@H](O)[C@H]1CO`, the Hepatotoxicity entry with Hepatotoxicity [1] is “no drug-induced liver injury reported”; in the data set on Hepatotoxicity [2], “no drug-induced liver injury reported”; with Hepatotoxicity [3], “drug-induced liver injury reported”.
For the compound `CCCCC(=O)N(Cc1ccc(-c2ccccc2-c2nnn[nH]2)cc1)[C@H](C(=O)O)C(C)C`, the figures for the Hepatotoxicity result in the data set on Hepatotoxicity [1], with Hepatotoxicity [2] and in the data set with Hepatotoxicity [3] were “drug-induced liver injury reported”, “no drug-induced liver injury reported” and “drug-induced liver injury reported”, respectively.
Take `CC(C)CN(C[C@@H](O)[C@H](Cc1ccccc1)NC(=O)O[C@H]1CCOC1)S(=O)(=O)c1ccc(N)cc1`: the Hepatotoxicity result with Hepatotoxicity [1] is on record as “drug-induced liver injury reported”; in the data set with Hepatotoxicity [2], “no drug-induced liver injury reported”; in the data set on Hepatotoxicity [3], “no drug-induced liver injury reported”.
On to `CCOC(=O)[C@H](CCc1ccccc1)N[C@@H](C)C(=O)N1[C@H](C(=O)O)C[C@@H]2CCC[C@@H]21`, for which the Hepatotoxicity entry in the data set with Hepatotoxicity [1] is given as “drug-induced liver injury reported”; in the data set with Hepatotoxicity [2], “no drug-induced liver injury reported”; in the data set with Hepatotoxicity [3] it was “drug-induced liver injury reported”.
As for `COc1cnc(NS(=O)(=O)c2ccc(N)cc2)nc1`, the Hepatotoxicity entry with Hepatotoxicity [1] was “drug-induced liver injury reported”; in the data set with Hepatotoxicity [2], “no drug-induced liver injury reported”; in the data set on Hepatotoxicity [3], “no drug-induced liver injury reported”.
On to `FC(F)OC(F)C(F)(F)F` (stereo unspecified), for which the Hepatotoxicity result is recorded as “drug-induced liver injury reported” with Hepatotoxicity [1], “no drug-induced liver injury reported” in the data set on Hepatotoxicity [2] and “drug-induced liver injury reported” in the data set with Hepatotoxicity [3].
For the compound `CCN1CC(CCN2CCOCC2)C(c2ccccc2)(c2ccccc2)C1=O.Cl` (stereo unspecified), the Hepatotoxicity result with Hepatotoxicity [1] is listed as “drug-induced liver injury reported”; with Hepatotoxicity [2], “no drug-induced liver injury reported”; in the data set on Hepatotoxicity [3], “no drug-induced liver injury reported”.
For `N#Cc1cc(NC(=O)C(=O)O)c(Cl)c(NC(=O)C(=O)O)c1.NC(CO)(CO)CO`, the results for the Hepatotoxicity entry in the data set on Hepatotoxicity [1], with Hepatotoxicity [2] and in the data set with Hepatotoxicity [3] were “no drug-induced liver injury reported”, “no drug-induced liver injury reported” and “drug-induced liver injury reported”, respectively.
With `C[C@@H](O)[C@H](NC(=O)N(C)c1ncnc2c1ncn2[C@@H]1O[C@H](COP(=O)(O)O)[C@@H](O)[C@H]1O)C(=O)O`, the Hepatotoxicity result in the data set on Hepatotoxicity [1] is “no drug-induced liver injury reported”; in the data set on Hepatotoxicity [2], “no drug-induced liver injury reported”; with Hepatotoxicity [3], “drug-induced liver injury reported”.
`FC(F)OC(F)(F)C(F)Cl` (stereo unspecified): the Hepatotoxicity result in the data set on Hepatotoxicity [1], in the data set on Hepatotoxicity [2] and with Hepatotoxicity [3] was “drug-induced liver injury reported” in each case.
Take `CC[C@@H](C(N)=O)N1CCCC1=O`: the Hepatotoxicity entry in the data set with Hepatotoxicity [1] is on record as “drug-induced liver injury reported”; in the data set with Hepatotoxicity [2], “no drug-induced liver injury reported”; in the data set on Hepatotoxicity [3] it was “no drug-induced liver injury reported”.
On to `CC1=C(CC(=O)O)c2cc(F)ccc2/C1=C\c1ccc([S+](C)[O-])cc1` (stereo unspecified), for which the Hepatotoxicity entry is given as “drug-induced liver injury reported” in the data set with Hepatotoxicity [1], “no drug-induced liver injury reported” in the data set with Hepatotoxicity [2] and “drug-induced liver injury reported” with Hepatotoxicity [3].
Regarding `CCOC(=O)[C@H](CCc1ccccc1)N[C@@H](C)C(=O)N1Cc2ccccc2C[C@H]1C(=O)O`, the Hepatotoxicity result was “drug-induced liver injury reported” with Hepatotoxicity [1], “no drug-induced liver injury reported” in the data set on Hepatotoxicity [2] and “no drug-induced liver injury reported” in the data set with Hepatotoxicity [3].
As to `C=Cc1c(C)c2cc3nc(c(CC(=O)NC(CC(=O)O)C(=O)O)c4nc(cc5[nH]c(cc1[nH]2)c(C)c5CC)C(C)=C4C(=O)O)C(CCC(=O)O)C3C` (stereo unspecified), the Hepatotoxicity entry in the data set with Hepatotoxicity [1] is on record as “no drug-induced liver injury reported”; in the data set with Hepatotoxicity [2], “no drug-induced liver injury reported”; with Hepatotoxicity [3] it was “drug-induced liver injury reported”.
Take `C[C@@H]1O[C@@H](O[C@@H]2C=C3CC[C@@H]4[C@H](CC[C@]5(C)[C@@H](c6ccc(=O)oc6)CC[C@]45O)[C@@]3(C)CC2)[C@H](O)[C@H](O)[C@H]1O[C@@H]1O[C@H](CO)[C@@H](O)[C@H](O)[C@H]1O`: the Hepatotoxicity entry is given as “no drug-induced liver injury reported” in the data set on Hepatotoxicity [1], “no drug-induced liver injury reported” in the data set on Hepatotoxicity [2] and “drug-induced liver injury reported” with Hepatotoxicity [3].
Turning to `CCCc1nn(C)c2c(=O)[nH]c(-c3cc(S(=O)(=O)N4CCN(C)CC4)ccc3OCC)nc12`, the Hepatotoxicity entry in the data set on Hepatotoxicity [1] is reported as “drug-induced liver injury reported”; in the data set with Hepatotoxicity [2], “no drug-induced liver injury reported”; in the data set with Hepatotoxicity [3], “no drug-induced liver injury reported”.
For `C[C@H](NC(=O)C(=O)Nc1ccccc1C(C)(C)C)C(=O)N[C@@H](CC(=O)O)C(=O)COc1c(F)c(F)cc(F)c1F`, the Hepatotoxicity entry in the data set with Hepatotoxicity [1] was “no drug-induced liver injury reported”; in the data set with Hepatotoxicity [2], “no drug-induced liver injury reported”; in the data set with Hepatotoxicity [3] it was “drug-induced liver injury reported”.
Consider `CCC(=C(c1ccc(O)cc1)c1ccc(OCCN(C)C)cc1)c1ccccc1`, for which the Hepatotoxicity entry with Hepatotoxicity [1] was “drug-induced liver injury reported”; in the data set with Hepatotoxicity [2] it was “no drug-induced liver injury reported”; in the data set with Hepatotoxicity [3], “drug-induced liver injury reported”.
Turning to `O=C(O)COc1ccc(C(=O)c2cccs2)c(Cl)c1Cl`, the Hepatotoxicity entry in the data set with Hepatotoxicity [1] was “drug-induced liver injury reported”; in the data set on Hepatotoxicity [2] it was “no drug-induced liver injury reported”; in the data set on Hepatotoxicity [3], “drug-induced liver injury reported”.
With `CNC(=O)[C@@H](NC(=O)[C@H](CC(C)C)[C@H](O)C(=O)NO)C(C)(C)C`, the Hepatotoxicity entry is “no drug-induced liver injury reported” in the data set on Hepatotoxicity [1], “no drug-induced liver injury reported” in the data set on Hepatotoxicity [2] and “drug-induced liver injury reported” in the data set with Hepatotoxicity [3].
As to `CCOC(=O)[C@H](CCc1ccccc1)N[C@@H](C)C(=O)N1C(=O)N(C)C[C@H]1C(=O)O`, the Hepatotoxicity entry was “no drug-induced liver injury reported” with Hepatotoxicity [1], “no drug-induced liver injury reported” in the data set on Hepatotoxicity [2] and “drug-induced liver injury reported” in the data set with Hepatotoxicity [3].
As to `COc1ccc(/C=C/C(=O)Nc2ccccc2C(=O)O)cc1OC`, the Hepatotoxicity result is reported as “no drug-induced liver injury reported” in the data set with Hepatotoxicity [1], “no drug-induced liver injury reported” with Hepatotoxicity [2] and “drug-induced liver injury reported” in the data set on Hepatotoxicity [3].
As for `C=C1[C@H](CO)[C@@H](O)C[C@@H]1n1cnc2c(=O)[nH]c(N)nc21.O`, the Hepatotoxicity result was “drug-induced liver injury reported” in the data set on Hepatotoxicity [1], “no drug-induced liver injury reported” in the data set with Hepatotoxicity [2] and “no drug-induced liver injury reported” with Hepatotoxicity [3].
As to `CC(C)(C)NC(=O)[C@@H]1CN(Cc2cccnc2)CCN1C[C@@H](O)C[C@@H](Cc1ccccc1)C(=O)N[C@H]1c2ccccc2C[C@H]1O.O`, the Hepatotoxicity result in the data set with Hepatotoxicity [1] is listed as “drug-induced liver injury reported”; in the data set on Hepatotoxicity [2], “no drug-induced liver injury reported”; with Hepatotoxicity [3] it was “drug-induced liver injury reported”.
For `CCOC(=O)[C@H](CCc1ccccc1)N[C@@H](C)C(=O)N1CCC[C@H]1C(=O)O`, the results for the Hepatotoxicity result with Hepatotoxicity [1], with Hepatotoxicity [2] and in the data set on Hepatotoxicity [3] were “drug-induced liver injury reported”, “no drug-induced liver injury reported” and “drug-induced liver injury reported”, respectively.
Consider `Cc1c(O)cccc1C(=O)N[C@@H](CSc1ccccc1)[C@H](O)CN1C[C@H]2CCCC[C@H]2C[C@H]1C(=O)NC(C)(C)C`, for which the values for the Hepatotoxicity result with Hepatotoxicity [1], in the data set on Hepatotoxicity [2] and in the data set on Hepatotoxicity [3] were “drug-induced liver injury reported”, “no drug-induced liver injury reported” and “no drug-induced liver injury reported”, respectively.
Consider `Cc1onc(-c2ccccc2)c1C(=O)N[C@@H]1C(=O)N2[C@@H]1SC(C)(C)[C@@H]2C(=O)[O-].[Na+]`, for which the Hepatotoxicity entry in the data set with Hepatotoxicity [1] was “drug-induced liver injury reported”; in the data set with Hepatotoxicity [2] it was “no drug-induced liver injury reported”; with Hepatotoxicity [3] it was “no drug-induced liver injury reported”.
Consider `N[C@@H](Cc1ccc(N(CCCl)CCCl)cc1)C(=O)O`, for which the Hepatotoxicity entry with Hepatotoxicity [1] was “drug-induced liver injury reported”; in the data set with Hepatotoxicity [2], “no drug-induced liver injury reported”; in the data set on Hepatotoxicity [3], “drug-induced liver injury reported”.
Take `CCN(CC)CCOc1ccc(C(=C(Cl)c2ccccc2)c2ccccc2)cc1` (stereo in doubt; form 2) [CLOMIPHENE]: the values for the Hepatotoxicity result with Hepatotoxicity [1] and in the data set with Hepatotoxicity [3] were “no drug-induced liver injury reported” and “drug-induced liver injury reported”, respectively.
Take `C[C@]12CCC(=O)C=C1CC[C@@H]1[C@@H]2CC[C@@]2(C)[C@H]1CC[C@]2(C)O` (stereo in doubt; form 2) [METHYLTESTOSTERONE]: the Hepatotoxicity result in the data set on Hepatotoxicity [1] is given as “drug-induced liver injury reported”.
Consider `CC(=O)[C@H]1CC[C@H]2[C@@H]3CCC4=CC(=O)CC[C@]4(C)[C@H]3CC[C@]12C` (stereo in doubt; form 2) [PROGESTERONE], for which the Hepatotoxicity result with Hepatotoxicity [2] and in the data set on Hepatotoxicity [3] was “no drug-induced liver injury reported” in each case.
For `NCC(=O)O` [GLYCINE], the Hepatotoxicity result with Hepatotoxicity [2] (Liver) and in the data set on Hepatotoxicity [3] (Liver) was “drug-induced liver injury reported” in each case.
Consider `Cc1ncc(CO)c(CO)c1O` [PYRIDOXINE], for which the Hepatotoxicity entry in the data set with Hepatotoxicity [2] (Liver) is reported as “no drug-induced liver injury reported”; in the data set on Hepatotoxicity [3] (Liver) it was “drug-induced liver injury reported”.
